Experimental data from patent publication EP2181589A1, “Neurotoxic sterol glycosides” (Shaw, Christopher Ariel, priority 2008, dated 2010).
Values joined by “and” are separate entries in the source; they are usually repeats but may differ in a detail not shown here. Equal values may be shown once. “Also recorded” adds a separate entry of the source. Marks after values point to notes of the source that are not given here.

How the values were obtained:
Active Caspase-3 = assay: Active caspase-3 labelling (apoptotic activity); type: in vivo, CD-1 mice
Procedure: (§1) The synthetic SG was mixed with finely ground Purina Chow mouse pellets (Mouse Diet™, Purina) to create the experimental pellets with a SG content of 1000 µg per pellet. Dry materials were blended with a sterile silicon spatula. For every 5 g of standard feed, 2.5 mL of doubly-distilled water (dd)H2O was added and the dough was kneaded and round up into pellets. A single sterol glucoside containing pellet was placed in the feeding tray each morning before the addition of regular mouse chow (ad libitum). All experimental pellets were entirely consumed by the mice each day. Control mice were fed standard mouse chow pellets of identical weight with no additives. SG feeding was conducted daily for 15 weeks and mice were behaviorally monitored until sacrifice at 35 weeks (time point 1) or 52 weeks (time point 2).
(§2) Tissue-mounted slides were processed for fluorescence microscopy as follows: Sections were rinsed in coplin jars for 45 minutes at room temperature (RT) in three changes of PBS. Sections were then incubated at RT for 30 minutes in a blocking permeabilization solution made of 5% normal goat serum (NGS), 5% normal rabbit serum (NRS) or 5% BlokHen II (Aves Labs, Inc., Tigard, OR), 0.05% Triton X-100 and PBS. Subsequently, the blocking solution was tipped off and the slides were rinsed in PBS for 2 minutes. […]

CD-1 mice = assay: Rotarod test; type: in vivo; conditions: SG-fed vs control, duration of the study
Procedure: Five-month old male CD-1 mice (30.1-35.7 g, 7.5 cm - 8.8 cm) were purchased from Charles River (Wilmington, MA). Adult mice were chosen to mimic the mean age of onset of ALS-PDC (Kurland, 1988; Kurland et al., 1994). Thirty mice for the SG study were randomly divided into 2 groups (14 control and 16 experimental animals). All animals were housed singly in a virus-free barrier facility in a room maintained at 22°C under a 12 hour light/dark cycle. The mice were provided ad libitum access to food and water.
The synthetic SG was mixed with finely ground Purina Chow mouse pellets (Mouse Diet™, Purina) to create the experimental pellets with a SG content of 1000 µg per pellet. Dry materials were blended with a sterile silicon spatula. […] SG feeding was conducted daily for 15 weeks and mice were behaviorally monitored until sacrifice at 35 weeks (time point 1) or 52 weeks (time point 2).
Rotorod: The rotarod was used to evaluate motor function, coordination and balance (Jones and Roberts, 1968; Sango et al., 1995; Gerlai et al., 1996a; Sango et al., 1996; Chapillon et al., 1998; Carter et al., 1999; Crawley, 1999; Gerlai and Roder, 1996). The time that a mouse could remain walking on a horizontal (Norflus et al., 1998), rotating axle (3.6 cm diameter; 16 rpm) elevated above an area of padding without falling, clenching on, or jumping off the axle was measured (Crawley, 1999), see FIGURE 15. […]

[1] = system: Phosphorylated TDP-43 aggregates; assay: TDP-43 immunofluorescence; type: in vivo, CD-1 mice; set-up: key to Phosphorylated TDP-43 aggregates: - = not present; + = present; conditions: for Phosphorylated TDP-43 aggregates: SG-fed
Procedure: as §1
Tissue-mounted slides were processed for fluorescence microscopy as follows: Sections were rinsed in coplin jars for 45 minutes at room temperature (RT) in three changes of PBS. Sections were then incubated at RT for 30 minutes in a blocking permeabilization solution made of 5% normal goat serum (NGS), 5% normal rabbit serum (NRS) or 5% BlokHen II (Aves Labs, Inc., Tigard, OR), 0.05% Triton X-100 and PBS. Subsequently, the blocking solution was tipped off and the slides were rinsed in PBS for 2 minutes. Sections were then incubated overnight in a humidified chamber at 4°C with a PBS buffered solution that contained 1% NGS or 1% NRS, 1% bovine serum albumin (BSA) and one of the following primary antibodies: (a) rabbit anti-human/mouse ATF-3 (H-90) IgG (polyclonal, 1:500; Santa Cruz Biotechnology, Inc., Santa Cruz, CA), (b) anti-activated caspase-3 IgG (monoclonal, 1:250; Chemicon International, Temecula, CA) (see FIGURE 9), (c) goat antihuman/ mouse choline acetyl transferase (ChAT) IgG (polyclonal, 1:100; Chemicon International, Temecula, CA) (see FIGURE 6), (d) rabbit anti-mouse glial fibrillary acidic protein IgG (polyclonal, 1:250; GeneTex Inc., San Antonio, TX) (see FIGURE 7), (e) rabbit antihuman/ mouse ionized calcium binding adaptor molecule 1 (IBA-1) IgG (polyclonal, 1:500; Wako Pure Chemical Industries, Ltd, Richmond, VA), (f) mouse anti-human/mouse clone AT8 PHF-1 Tau (monoclonal, 1:200; Pierce Biotechnology Inc., Rockford, IL), (g) rabbit anti-human/mouse TAR DNA-binding protein 43 (TDP43) (1:100; ProteinTech Group Inc., Chicago, IL) (See FIGURE 14), (h) chicken anti-human/mouse β-tubulin 3 (TuJ1 antigen) (polyclonal, 1:100, Aves Labs, Inc., Tigard, OR), (i) rabbit anti-mouse tyrosine hydroxylase (polyclonal, 1:500, Chemicon International, Temecula, CA or polyclonal 1:1000, Affinity BioReagents, Golden, CO) (FIGURE 10), (j) rabbit anti human/mouse anti-pJunser73 IgG (polyclonal, 1:200; Chemicon International, Temecula, CA), (k) rabbit anti human/mouse anti-HSP-70 IgG (polyclonal, 1:200; Chemicon International, Temecula, CA), or (1) rabbit anti human/mouse anti-HSP-25 IgG (polyclonal, 1:100; Chemicon International, Temecula, CA). In each experiment, additional slides were incubated with the primary antibody and the secondary antibody omitted or with secondary antibody and primary antibody omitted to test for nonspecific staining. Where appropriate, positive control slides (Alzheimer's disease patient entorhinal cortex, obtained from Drs. Claudia Schwab and Patrick McGeer of the Kinsmen Laboratory, University of British Columbia, Vancouver, BC, Canada) were also processed as above for comparison. […]

Phosphorylated Junser73 = assay: Phosphorylated Jun ser73 immunofluorescence; type: in vivo, CD-1 mice; conditions: for Anti-pJun: SG-fed vs control
Procedure: as §1, §2

[2] = SG-fed group over time, 35 to 52 wk

Compound: CCC(C=CC(C)C1CCC2C3CC=C4CC(OC5OC(CO)C(O)C(O)C5O)CCC4(C)C3CCC12C)C(C)C (stereo not drawn) [SG]
- Apoptotic cells (Active Caspase-3; [2]): Apoptotic cells (SG-fed group over time) (ns)
- number of apoptotic cells (Active Caspase-3; SG-fed vs control, 52 weeks (figure legend)): did not reach significance
- Anti-active caspase 3 (Active Caspase-3; SG-fed vs control, time-point 2, 52 wk): (ns)
- Rotarod performance (CD-1 mice): trend of diminished performance on the rotarod but numbers did not reach statistical significance; also recorded: decrease in the time without fall
- pathologic phosphorylated TDP-43-containing aggregates in the lumbar spinal cord ([1]; SG-fed animals): increased
- translocation of TDP-43 ([1]; SG-fed animals at 35 weeks): No abnormal translocation
- Phosphorylated TDP-43 aggregates / TDP-43 pathology, animals affected ([1]; SG-fed group, time-point 2, 52 wk): Two of eight and 2/8
- Phosphorylated TDP-43 aggregates ([1]; time-point 1, 35 wk): -
- Phosphorylated TDP-43 aggregates ([1]; time-point 2, 52 wk): +
- Anti-pJun immunoreactive cells (Phosphorylated Junser73; [2]): Anti-pJun immunoreactive cells (SG-fed group over time) (ns)
- Anti-pJun (Phosphorylated Junser73; time-point 1, 35 wk): Anti-pJun: +199%*
- Anti-pJun (Phosphorylated Junser73; time-point 2, 52 wk): Anti-pJun (ns)
